Patent US20060069132A1, “Azolecarboxamide herbicides” (priority 2004, published 2006)

What was measured:
bermudagrass = assay: Test E pre-/postemergence herbicide test; format: in vivo, Cynodon dactylon; settings: Preemergence
Procedure, shortened: (§1)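 Postemergence treatment targeted plants at the 1- to 4-leaf stage (2–18 cm), alongside preemergence treatment of planted seed; both used a non-phytotoxic solvent mixture with surfactant. Visual ratings, 0 = no effect to 100 = complete control, were taken 12 to 14 days later.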

common groundsel = assay: Test E pre-/postemergence herbicide test; format: in vivo, Senecio vulgaris; settings: Preemergence
Procedure, shortened: as §1

windgrass = assay: Test C postemergence herbicide test; format: in vivo, Apera spica-venti
Procedure, shortened: (§2)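 After a postemergence application at 1 to 4 leaves (plants 2–18 cm high), or at 2 leaves for barnyardgrass in flooded paddy, plants stayed in the greenhouse for 12 to 14 days. Damage was then judged visually relative to control plants, with 100 indicating complete control.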

common mallow = assay: Test E pre-/postemergence herbicide test; format: in vivo, Malva sylvestris; settings: Preemergence
Procedure, shortened: as §1

winter barley = assay: Test C postemergence herbicide test; format: in vivo, Hordeum vulgare
Procedure, shortened: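 Scoring by eye, 12–14 days post-treatment, greenhouse-held plants vs. controls; 0 no effect, 100 complete control. Sprayed at 1–4 leaves (2–18 cm); paddy barnyardgrass at 2 leaves, flooded.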

canarygrass = assay: Test C postemergence herbicide test; format: in vivo, Phalaris minor
Procedure, shortened: as §2

common ragweed = assay: Test E pre-/postemergence herbicide test; format: in vivo, Ambrosia elatior; settings: Preemergence
Procedure, shortened: as §1

Surinam grass = assay: Test E pre-/postemergence herbicide test; format: in vivo, Urochloa decumbens; settings: Preemergence
Procedure, shortened: as §1

dallisgrass = assay: Test E pre-/postemergence herbicide test; format: in vivo, Paspalum dilatatum; settings: Preemergence
Procedure, shortened: as §1

common sowthistle = assay: Test E pre-/postemergence herbicide test; format: in vivo, Sonchus oleraceous; settings: Preemergence
Procedure, shortened: as §1

Italian ryegrass = assay: Test C postemergence herbicide test; format: in vivo, Lolium multiflorum
Procedure, shortened: as §2

wild oat = assay: Test C postemergence herbicide test; format: in vivo, Avenafatua
Procedure, shortened: as §2

green foxtail = assay: Test C postemergence herbicide test; format: in vivo, Setaria viridis
Procedure, shortened: as §2

pitted morningglory = assay: Test E pre-/postemergence herbicide test; format: in vivo, Ipomoea lacunosa; settings: Preemergence
Procedure, shortened: as §1

[1] = 125 g ai/ha, scale 0 (no effect) to 100 (complete control)
[2] = 250 g ai/ha, scale 0 (no effect) to 100 (complete control)
[3] = 500 g ai/ha, scale 0 (no effect) to 100 (complete control)
[4] = Postemergence, 500 g ai/ha, scale 0 to 100
[5] = Postemergence, 250 g ai/ha, scale 0 to 100, 0 no effect, 100 complete control
[6] = postemergence, 125 g ai/ha, scale 0 to 100
[7] = postemergence, 62 g ai/ha, scale 0 to 100

## CCNC(=O)c1cccc(NC(=O)c2cc(C(C)(C)C)nn2CC)n1 [Compound 144]
bermudagrass; 62 g ai/ha, scale 0 to 100
  Plant response rating, Bermudagrass: 50
bermudagrass; [1]
  Plant response rating, Bermudagrass: 80
bermudagrass; [2]
  Plant response rating, Bermudagrass: 85
bermudagrass; [3]
  Plant response rating, Bermudagrass: 90
Common groundsel; 62 g ai/ha, scale 0 to 100
  Plant response rating, Groundsel: 10
Common groundsel; [1]
  Plant response rating, Groundsel: 100
Common groundsel; [2]
  Plant response rating, Groundsel: 100
Common groundsel; [3]
  Plant response rating, Groundsel: 100
windgrass; [4]
  Windgrass plant response rating: 70
windgrass; [5]
  Plant response rating, Windgrass: 60
windgrass; [6]
  Plant response rating, Windgrass: 60
windgrass; [7]
  Plant response rating, Windgrass: 50
Common mallow; 62 g ai/ha, scale 0 to 100
  Plant response rating, Mallow: 60
Common mallow; [1]
  Plant response rating, Mallow: 60
Common mallow; [2]
  Plant response rating, Mallow: 70
Common mallow; [3]
  Plant response rating, Mallow: 95
Winter barley; [4]
  Barley, Winter plant response rating: 40
Winter barley; Postemergence, 125 g ai/ha, scale 0 to 100, 0 no effect, 100 complete control
  Plant response rating, Barley, Winter: 20
Winter barley; [5]
  Plant response rating, Barley, Winter: 30
Winter barley; postemergence, 62 g ai/ha, scale 0 to 100 (0 no effect, 100 complete control)
  Plant response rating, Barley, Winter: 0
canarygrass; [4]
  Canarygrass plant response rating: 50
canarygrass; [5]
  Plant response rating, Canarygrass: 40
canarygrass; [6]
  Plant response rating, Canarygrass: 40
canarygrass; [7]
  Plant response rating, Canarygrass: 40
Common ragweed; 62 g ai/ha, scale 0 to 100
  Plant response rating, Ragweed: 0
Common ragweed; [1]
  Plant response rating, Ragweed: 30
Common ragweed; [2]
  Plant response rating, Ragweed: 40
Common ragweed; [3]
  Plant response rating, Ragweed: 40
Surinam grass; 62 g ai/ha, scale 0 to 100
  Plant response rating, Surinam Grass: 10
Surinam grass; 125 g ai/ha, scale 0 to 100
  Plant response rating, Surinam Grass: 50
Surinam grass; [3]
  Plant response rating, Surinam Grass: 70
dallisgrass; 62 g ai/ha, scale 0 to 100
  Plant response rating, Dallisgrass: 0
dallisgrass; [1]
  Plant response rating, Dallisgrass: 30
dallisgrass; [2]
  Plant response rating, Dallisgrass: 60
dallisgrass; [3]
  Plant response rating, Dallisgrass: 80
Common sowthistle; 62 g ai/ha, scale 0 to 100
  Plant response rating, Sowthistle: 10
Common sowthistle; [1]
  Plant response rating, Sowthistle: 50
Common sowthistle; [2]
  Plant response rating, Sowthistle: 90
Common sowthistle; [3]
  Plant response rating, Sowthistle: 95
Italian ryegrass; [4]
  Ryegrass, Italian plant response rating: 50
Italian ryegrass; [5]
  Plant response rating, Ryegrass, Italian: 40
Italian ryegrass; [6]
  Plant response rating, Ryegrass, Italian: 20
Italian ryegrass; [7]
  Plant response rating, Ryegrass, Italian: 20
Wild oat; [4]
  Oat, Wild plant response rating: 50
Wild oat; [5]
  Plant response rating, Oat, Wild: 50
Wild oat; [6]
  Plant response rating, Oat, Wild: 50
Wild oat; [7]
  Plant response rating, Oat, Wild: 30
Green foxtail; [4]
  Foxtail, Green plant response rating: 60
Green foxtail; [5]
  Plant response rating, Foxtail, Green: 60
Green foxtail; [6]
  Plant response rating, Foxtail, Green: 60
Green foxtail; [7]
  Plant response rating, Foxtail, Green: 40
Pitted morningglory; 62 g ai/ha, scale 0 to 100
  Plant response rating, Morningglory: 0
Pitted morningglory; [1]
  Plant response rating, Morningglory: 20
Pitted morningglory; [2]
  Plant response rating, Morningglory: 20
Pitted morningglory; [3]
  Plant response rating, Morningglory: 100
